For 13 molecules, Solubility test results are on record in patent publication US9744222B2, “Peptide for vaccine” (Circassia Limited, priority 2007, dated 2017).

Where a SMILES comes first, the peptide text is derived from it.

This data set can be described thus: Solubility pre-screen of peptides. Particulars: pre-screened for solubility in an aqueous, acidic milieu; YES/NO.
Experimental: Methods The assay employed is a competitive MHC class II binding assay, wherein each peptide is analysed for its ability to displace a known control binder from each of the human MHC class II allotypes investigated.
Also shown is the solubility status of the peptide at the highest concentrations in the aqueous solution of the binding assay. The value illustrates the lowest concentration at which an insoluble white precipitate is seen.
Take `CC[C@H](C)[C@H](N)C(=O)NCC(=O)N[C@H](C(=O)N[C@@H](CCCCN)C(=O)N[C@@H](CC(=O)O)C(=O)N[C@@H](CC(C)C)C(=O)N[C@@H](CC(=O)O)C(=O)N[C@@H](C)C(=O)N[C@@H](Cc1ccccc1)C(=O)N[C@@H](CCCNC(=N)N)C(=O)N[C@@H](Cc1c[nH]cn1)C(=O)N[C@@H](Cc1ccc(O)cc1)C(=O)N[C@@H](CC(=O)O)C(=O)O)[C@@H](C)CC` [HDM11] (H-IGIKDLDAFRHYD-OH; N-terminus and C-terminus assumed): the Solubility test entry is given as “YES”.

As to `CC(C)C[C@H](NC(=O)[C@H](CCC(N)=O)NC(=O)[C@H](Cc1ccccc1)NC(=O)[C@@H]1CCCN1C(=O)[C@H](CCCCN)NC(=O)CNC(=O)[C@@H](N)CCCNC(=N)N)C(=O)N[C@@H](CCC(=O)O)C(=O)N[C@@H](C)C(=O)N[C@H](C(=O)N[C@@H](Cc1ccccc1)C(=O)N[C@@H](CCC(=O)O)C(=O)N[C@@H](C)C(=O)N[C@@H](CC(N)=O)C(=O)N[C@@H](CCC(N)=O)C(=O)N[C@@H](CC(N)=O)C(=O)N[C@H](C(=O)O)[C@@H](C)O)C(C)C` [HDM21B] (H-RGKPFQLEAVFEANQNT-OH; N-terminus and C-terminus assumed), the Solubility test result is “YES”. For the molecule `CSCC[C@H](NC(=O)[C@@H]1CCCN1C(=O)[C@H](CC(=O)O)NC(=O)[C@H](Cc1ccccc1)NC(=O)[C@@H](NC(=O)[C@@H](N)CCC(=O)O)[C@@H](C)O)C(=O)N[C@@H](CCCCN)C(=O)N[C@H](C(=O)N1CCC[C@H]1C(=O)N[C@@H](CC(=O)O)C(=O)N[C@@H](Cc1c[nH]cn1)C(=O)N[C@@H](CO)C(=O)N[C@@H](CC(=O)O)C(=O)O)C(C)C` [HDM29] (H-ETFDPMKVPDHSD-OH; N-terminus and C-terminus assumed), the Solubility test result is given as “YES”.

Take `CC[C@H](C)[C@H](NC(=O)[C@H](CC(N)=O)NC(=O)[C@@H](N)CCCNC(=N)N)C(=O)N[C@@H](CCC(N)=O)C(=O)N[C@H](C(=O)N[C@@H](CCCNC(=N)N)C(=O)NCC(=O)N[C@@H](CC(C)C)C(=O)N[C@@H](CCCCN)C(=O)N[C@@H](CCC(N)=O)C(=O)N[C@@H](CCSC)C(=O)N[C@@H](CCCCN)C(=O)N[C@@H](CCCNC(=N)N)C(=O)N[C@H](C(=O)NCC(=O)O)C(C)C)C(C)C` [HDM34] (H-RNIQVRGLKQMKRVG-OH; N-terminus and C-terminus assumed): the Solubility test entry is recorded as “YES”. Take `CSCC[C@H](NC(=O)[C@H](CCC(=O)O)NC(=O)[C@H](C)NC(=O)[C@H](CCCNC(=N)N)NC(=O)[C@@H](NC(=O)[C@@H](NC(=O)[C@@H](N)CC(=O)O)[C@@H](C)O)C(C)C)C(=O)N[C@H](C(=O)N[C@@H](CCCCN)C(=O)N[C@H](C(=O)N[C@@H](CC(C)C)C(=O)N[C@@H](C)C(=O)N1CCC[C@H]1C(=O)O)C(C)C)[C@@H](C)O` [HDM49] (H-DTVRAEMTKVLAP-OH; N-terminus and C-terminus assumed): the Solubility test result is given as “YES”. The same measure for `CC[C@H](C)[C@H](NC(=O)[C@H](CCC(=O)O)NC(=O)[C@H](Cc1c[nH]cn1)NC(=O)[C@H](CC(N)=O)NC(=O)[C@H](C)NC(=O)[C@H](CS)NC(=O)[C@H](CC(=O)O)NC(=O)[C@H](CCCCN)NC(=O)[C@@H](NC(=O)[C@H](CC(=O)O)NC(=O)[C@@H](NC(=O)[C@H](CCC(N)=O)NC(=O)[C@@H](N)CC(=O)O)C(C)C)C(C)C)C(=O)N[C@@H](CCCCN)C(=O)N[C@@H](CCCCN)C(=O)O` [HDM19] (H-DQVDVKDCANHEIKK-OH; N-terminus and C-terminus assumed): “YES”.

`CC(C)C[C@H](NC(=O)[C@H](CC(=O)O)NC(=O)[C@@H](N)CCCCN)C(=O)N[C@@H](CC(=O)O)C(=O)N[C@@H](C)C(=O)N[C@@H](Cc1ccccc1)C(=O)N[C@@H](CCCNC(=N)N)C(=O)N[C@@H](Cc1c[nH]cn1)C(=O)N[C@@H](Cc1ccc(O)cc1)C(=O)N[C@@H](CC(=O)O)C(=O)NCC(=O)N[C@@H](CCCNC(=N)N)C(=O)N[C@H](C(=O)O)[C@@H](C)O` [HDM12] (H-KDLDAFRHYDGRT-OH; N-terminus and C-terminus assumed): the Solubility test result is recorded as “YES”. The same measure for `CC(C)[C@H](NC(=O)[C@H](Cc1ccc(O)cc1)NC(=O)[C@@H](N)CCCNC(=N)N)C(=O)N[C@@H](C)C(=O)N[C@@H](CCCNC(=N)N)C(=O)N[C@@H](CCC(=O)O)C(=O)N[C@@H](CCC(N)=O)C(=O)N[C@@H](CO)C(=O)N[C@@H](CS)C(=O)N[C@@H](CCCNC(=N)N)C(=O)N[C@@H](CCCNC(=N)N)C(=O)N1CCC[C@H]1C(=O)N[C@@H](CC(N)=O)C(=O)O` [HDM06] (H-RYVAREQSCRRPN-OH; N-terminus and C-terminus assumed): “YES”; for `CC(C)C[C@H](NC(=O)[C@H](CCC(N)=O)NC(=O)[C@H](Cc1ccccc1)NC(=O)[C@@H]1CCCN1C(=O)[C@@H](N)CCCCN)C(=O)N[C@@H](CCC(=O)O)C(=O)N[C@@H](C)C(=O)N[C@H](C(=O)N[C@@H](Cc1ccccc1)C(=O)N[C@@H](CCC(=O)O)C(=O)N[C@@H](C)C(=O)N[C@@H](CC(N)=O)C(=O)N[C@@H](CCC(N)=O)C(=O)N[C@@H](CC(N)=O)C(=O)N[C@H](C(=O)O)[C@@H](C)O)C(C)C` [HDM21] (H-KPFQLEAVFEANQNT-OH; N-terminus and C-terminus assumed): “YES”. The same measure for `CC[C@H](C)[C@H](NC(=O)[C@H](CC(N)=O)NC(=O)[C@H](CCCNC(=N)N)NC(=O)[C@H](CCSC)NC(=O)[C@H](CC(=O)O)NC(=O)[C@@H](N)CC(C)C)C(=O)N[C@@H](CCC(N)=O)C(=O)N[C@H](C(=O)N[C@@H](CCCNC(=N)N)C(=O)NCC(=O)N[C@@H](CC(C)C)C(=O)N[C@@H](CCCCN)C(=O)N[C@@H](CCC(N)=O)C(=O)O)C(C)C` [HDM33] (H-LDMRNIQVRGLKQ-OH; N-terminus and C-terminus assumed): “YES”; for `CC(C)[C@H](NC(=O)[C@H](CCCNC(=N)N)NC(=O)[C@@H](N)CCCCN)C(=O)NCC(=O)N[C@@H](CC(=O)O)C(=O)N[C@@H](C)C(=O)N[C@@H](CC(N)=O)C(=O)N[C@H](C(=O)N[C@@H](CCCCN)C(=O)N[C@@H](CO)C(=O)N[C@@H](CCC(=O)O)C(=O)N[C@@H](CC(=O)O)C(=O)NCC(=O)O)C(C)C` [HDM36] (H-KRVGDANVKSEDG-OH; N-terminus and C-terminus assumed): “YES”. With `CC(C)C[C@H](NC(=O)[C@H](CC(=O)O)NC(=O)[C@H](CC(C)C)NC(=O)[C@H](CO)NC(=O)[C@H](CCC(N)=O)NC(=O)[C@H](CC(N)=O)NC(=O)[C@@H](N)CCCNC(=N)N)C(=O)N[C@@H](C)C(=O)N[C@@H](CCC(=O)O)C(=O)N[C@@H](CCC(N)=O)C(=O)N[C@@H](CCC(=O)O)C(=O)N[C@@H](CC(C)C)C(=O)N[C@H](C(=O)N[C@@H](CC(=O)O)C(=O)N[C@@H](CS)C(=O)N[C@@H](C)C(=O)N[C@@H](CO)C(=O)N[C@@H](CCC(N)=O)C(=O)N[C@@H](Cc1c[nH]cn1)C(=O)O)C(C)C` [HDM03C] (H-RNQSLDLAEQELVDCASQH-OH; N-terminus and C-terminus assumed) the entry was “YES”; with `CC[C@H](C)[C@H](NC(=O)[C@H](CCCCN)NC(=O)[C@H](CC(N)=O)NC(=O)[C@@H](NC(=O)[C@H](CC(N)=O)NC(=O)[C@@H]1CCCN1)C(C)C)C(=O)N[C@@H](CCCNC(=N)N)C(=O)N[C@@H](CCC(=O)O)C(=O)N[C@@H](C)C(=O)N[C@@H](CC(C)C)C(=O)N[C@@H](C)C(=O)N[C@@H](CCC(N)=O)C(=O)N[C@H](C(=O)O)[C@@H](C)O` [HDM07] (H-PNVNKIREALAQT-OH; N-terminus and C-terminus assumed), “YES”.
